Drawing on the supplement of paper PMC11061612, this text covers Bliss excess for six compounds.

Test in all cases: Bliss excess, mean over the matrix (fraction); higher = more synergy
Assay [1] deals with NCI-H2087 (Lung Adenocarcinoma). The essentials: (§1)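 Cell lines grown in DMEM/F12 or RPMI with 10% FBS were plated in 1536-well plates and held 24 hours at 37°C, 5% CO2 before 72 hours of exposure to two-drug dose matrices, with DMSO typically at 0.2%. CellTiter-Glo 2.0 luminescence gave viability, which was converted to inhibition. Vehicle wells were set to 0 and blank wells to 1. Combination Emax is the second-highest inhibition in the matrix, and Bliss excess is the observed combination effect minus the expected EA + EB − EA·EB, where EA and EB are the single-agent effects.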

The test system of assay [2] is GA-10 (Burkitt's Lymphoma). The procedure, abridged:
as §1

The subject of assay [3] is 22RV1 (Prostate Carcinoma). The essentials: as §1
A further assay concerns A101D (Melanoma). The essentials:
as §1

In assay [4] the test system is JVM-2 (B-Cell Non-Hodgkin's Lymphoma). The essentials: as §1
The subject of another assay is COLO-792 (Melanoma). The essentials: as §1
The next assay deals with NB13 (Neuroblastoma). The essentials: as §1
Assay [5] has as its system SW620 (Colorectal Carcinoma). The essentials: as §1
Assay [6] relates to DMS-53 (Small Cell Lung Carcinoma). The procedure, abridged: as §1
Assay [7] deals with HT55 (Colorectal Carcinoma). The procedure, abridged:
as §1

Assay [8] relates to CGTH-W-1 (Thyroid Gland Carcinoma). The essentials:
as §1

In a further assay the test system is AU565 (Breast Carcinoma). The essentials: as §1
In another assay the test system is 5637 (Bladder Carcinoma). The essentials:
as §1

For assay [9], the system named is CESS (Acute Myeloid Leukemia). The essentials: as §1
For assay [10], the system named is SK-HEP-1 (Hepatocellular Carcinoma). The procedure, abridged: as §1
Assay [11] deals with HCC1395 (Breast Carcinoma). The procedure, abridged: as §1
The subject of assay [12] is JHU-022 (Oral Cavity Carcinoma). The procedure, abridged:
as §1

The subject of the next assay is PEO1 (Ovarian Carcinoma). The essentials:
as §1

Assay [13] relates to GCT (Other Solid Carcinomas). The procedure, abridged: as §1
For assay [14], the system named is A253 (Head and Neck Carcinoma). The procedure, abridged: as §1

For `Cc1c2c(nn1C)CSCc1cc(n(C)n1)CSc1cc(c3ccccc3c1)OCCCc1c(C(=O)O)n(C)c3c-2c(Cl)ccc13` [AZD5991] + C=CCn1c(=O)c2cnc(Nc3ccc(N4CCN(C)CC4)cc3)nc2n1-c1cccc(C(C)(C)O)n1 [AZD1775] (first compound max 1 µM, partner max 1 µM), the Bliss excess was -0.0067 in [1]; -0.053 in [2]; -0.003 in [3]; 0.0106 in the assay with A101D (Melanoma); -0.0165 in assay [4]; 0.0348 in the assay on COLO-792 (Melanoma). The Bliss excess in the assay with NB13 (Neuroblastoma) was -0.0346; in assay [5], -0.0272; in [6], 0.0326; in assay [7], 0.0215; in [8] it was 0.005; in the assay with AU565 (Breast Carcinoma), 0.0127. The Bliss excess with 5637 (Bladder Carcinoma) was -0.0352; in [9], -0.0098; in assay [10] it was -0.0366; in assay [11] it was -0.0172; in assay [12], -0.0072; in the assay on PEO1 (Ovarian Carcinoma) it was 0.0146. Further, the figures for the Bliss excess in assay [13] and in [14] were 0.0301 and 0.0398, respectively.
For `Cc1c2c(nn1C)CSCc1cc(n(C)n1)CSc1cc(c3ccccc3c1)OCCCc1c(C(=O)O)n(C)c3c-2c(Cl)ccc13` [AZD5991] + CC1(C)CCC(CN2CCN(c3ccc(C(=O)NS(=O)(=O)c4ccc(NCC5CCOCC5)c([N+](=O)[O-])c4)c(Oc4cnc5[nH]ccc5c4)c3)CC2)=C(c2ccc(Cl)cc2)C1 [Venetoclax] (first compound max 1 µM, 7x7, partner max 1 µM), the Bliss excess was -0.0304 in assay [1]; -0.0658 in assay [2]; -0.0149 in assay [3]; 0.0076 with A101D (Melanoma); 0.0109 in assay [4]; 0.0312 in the assay on COLO-792 (Melanoma). Besides, the Bliss excess in the assay on NB13 (Neuroblastoma) was 0.0393; in [5], -0.037; in assay [6], 0.159; in assay [7], -0.0244; in [8], -0.012; in the assay with AU565 (Breast Carcinoma), 0.0115. Besides, the Bliss excess in the assay with 5637 (Bladder Carcinoma) was -0.0474; in [9], 0.0276; in assay [10] it was -0.0098; in [11] it was -0.019; in assay [12], -0.0291; with PEO1 (Ovarian Carcinoma), -0.0145. Besides, the Bliss excess in assay [13] is -0.0272; in [14], 0.0088.
In the case of `Cc1c2c(nn1C)CSCc1cc(n(C)n1)CSc1cc(c3ccccc3c1)OCCCc1c(C(=O)O)n(C)c3c-2c(Cl)ccc13` [AZD5991] + CCN(CCO)CCCOc1ccc2c(Nc3cc(CC(=O)Nc4cccc(F)c4)[nH]n3)ncnc2c1 [AZD2811] (first compound max 1 µM, 7x7, partner max 1 µM), the Bliss excess in assay [1] was -0.0144; in assay [2], -0.0092; in assay [3] it was -0.0004; in the assay on A101D (Melanoma), -0.0169; in assay [4], 0.032; in the assay with COLO-792 (Melanoma) it was -0.0095. The Bliss excess was 0.131 with NB13 (Neuroblastoma); 0.0591 in assay [5]; 0.0525 in [6]; 0.0472 in [7]; 0.0439 in assay [8]; 0.0367 in the assay on AU565 (Breast Carcinoma). The Bliss excess is 0.0103 in the assay with 5637 (Bladder Carcinoma); 0.192 in assay [9]; 0.0084 in assay [10]; 0.0432 in assay [11]; 0.0039 in assay [12]; 0.0502 in the assay with PEO1 (Ovarian Carcinoma). For the same compound, the figures for the Bliss excess in [13] and in assay [14] were 0.0106 and 0.0542, respectively.
`Cc1c2c(nn1C)CSCc1cc(n(C)n1)CSc1cc(c3ccccc3c1)OCCCc1c(C(=O)O)n(C)c3c-2c(Cl)ccc13` [AZD5991] + C[C@@H]1COCCN1C2=NC(=NC(=C2)C3(CC3)[S@](=N)(=O)C)C4=C5C=CNC5=NC=C4 [AZD6738] (first compound max 1 µM, 7x7, partner max 10 µM): the Bliss excess in assay [1] was -0.0396; in assay [2], -0.018; in assay [3], 0.0449; with A101D (Melanoma), 0.0342; in assay [4], -0.0128; with COLO-792 (Melanoma) it was 0.0026. Also, the Bliss excess with NB13 (Neuroblastoma) amounted to 0.012; in assay [5], 0.0191; in [6], 0.0165; in assay [7], 0.0901; in assay [8] it was 0.0117; in the assay on AU565 (Breast Carcinoma) it was 0.0006. Also, the Bliss excess in the assay on 5637 (Bladder Carcinoma) was 0.0305; in assay [9] it was 0.066; in assay [10], 0.0225; in [11], 0.0307; in assay [12] it was -0.0118; in the assay on PEO1 (Ovarian Carcinoma), 0.0062. For the same compound, the Bliss excess in assay [13] worked out at 0.06; in assay [14], 0.0364.
`Cc1c2c(nn1C)CSCc1cc(n(C)n1)CSc1cc(c3ccccc3c1)OCCCc1c(C(=O)O)n(C)c3c-2c(Cl)ccc13` [AZD5991] + C[C@@H](Nc1cc(F)cc(F)c1)c1cc(C(=O)N(C)C)cc2c(=O)cc(N3CCOCC3)oc12 [AZD8186] (first compound max 1 µM, 7x7, partner max 3 µM): the Bliss excess was -0.0168 in [1]; 0.0321 in [2]; -0.0029 in [3]; -0.0318 in the assay on A101D (Melanoma); 0.0024 in [4]; 0.0218 in the assay with COLO-792 (Melanoma). For the same compound, the Bliss excess was 0.0039 in the assay on NB13 (Neuroblastoma); -0.0298 in [5]; 0.0267 in assay [6]; -0.0305 in assay [7]; -0.0348 in [8]; 0.0418 with AU565 (Breast Carcinoma). Also, the Bliss excess in the assay with 5637 (Bladder Carcinoma) is -0.036; in [9] it was -0.0325; in assay [10], 0.0175; in [11], 0.0527; in assay [12], -0.0211; with PEO1 (Ovarian Carcinoma), -0.008. Moreover, the Bliss excess in assay [13] was -0.0351; in [14], -0.0396.
On to `Cc1c2c(nn1C)CSCc1cc(n(C)n1)CSc1cc(c3ccccc3c1)OCCCc1c(C(=O)O)n(C)c3c-2c(Cl)ccc13` [AZD5991] + Cc1cc2ncnn2cc1Nc1ncc2c(n1)n(C1CCOCC1)c(=O)n2C [AZD7648] (first compound max 1 µM, 7x7, partner max 10 µM), for which the Bliss excess is -0.0221 in assay [1]; -0.0508 in [2]; -0.0528 in [3]; -0.0897 in the assay with A101D (Melanoma); -0.046 in assay [4]; 0.0234 in the assay on COLO-792 (Melanoma). In addition, the Bliss excess in the assay on NB13 (Neuroblastoma) is 0.0153; in assay [5], -0.0421; in assay [6], 0.0011; in assay [7], -0.0152; in [8], -0.0214; with AU565 (Breast Carcinoma), -0.0172. In addition, the Bliss excess in the assay with 5637 (Bladder Carcinoma) was -0.0232; in assay [9], 0.0437; in assay [10], -0.0463; in assay [11], -0.0497; in assay [12], -0.028; with PEO1 (Ovarian Carcinoma), -0.0279. Moreover, the results for the Bliss excess in assay [13] and in [14] were -0.0702 and -0.0286, respectively.
